Experimental data reported in patent US20250161281A1, “EMOPAMIL-BINDING PROTEIN INHIBITORS AND USES THEREOF” (BIOGEN MA INC., priority 2022, published 2025).

These compounds were tested against T1, EBP (Homo sapiens, UniProt Q15125) (assay: EBP Functional Assay (EBP immunoaffinity LC-MS assay)). Settings: HEK293T cells as source of EBP enzyme; 30 min with inhibitor, then zymosterol-d5, 37° C. for 4 h; percent conversion by LC-APCI MRM MS.
T1 construct: HEK293T cells were utilized as the source of EBP enzyme; endogenous in cells; host or cells: HEK293T
Type: biochemical
Experimental: The EBP immunoaffinity (IA) LC-MS assay measures the potency of small molecule inhibitors of EBP by quantifying their concentration-dependent changes in the enzyme's substrate and product using liquid chromatography atmospheric pressure chemical ionization multiple reaction monitoring mass spectrometry (LC-APCI MRM MS). HEK293T cells were utilized as the source of EBP enzyme. The enzyme was incubated with the small molecule inhibitors at variable concentrations for 30 min. Deuterated form of EBP substrate, zymosterol-d5 (Avanti Polar Lipids, Cat #700068P-1 mg), was then added and the plate was incubated at 37° C. for 4 h. Finally, the sterol isomers were extracted and injected to LC-APCI MRM MS. MRM transition used for the quantification for both zymosterol and dihydrolathosterol (substrate and product of EBP enzymatic reaction, respectively) is 372.3-203.2, CE 30 and DP 80 in positive ion mode. Percent conversion of the zymosterol-d5 to dehydrolathosterol-d5 was used to derive IC50 curves. Tasin-1 (1′-[(4-Methoxyphenyl)sulfonyl]-4-methyl-1,4′-bipiperidine, CAS 792927-06-1) was used as the reference small molecule inhibitor. Percent conversion versus the compound concentration data were fit to the following 4-parameter logistic model to generate IC50 curves: […]

T1 sequence (Q15125 whole entry): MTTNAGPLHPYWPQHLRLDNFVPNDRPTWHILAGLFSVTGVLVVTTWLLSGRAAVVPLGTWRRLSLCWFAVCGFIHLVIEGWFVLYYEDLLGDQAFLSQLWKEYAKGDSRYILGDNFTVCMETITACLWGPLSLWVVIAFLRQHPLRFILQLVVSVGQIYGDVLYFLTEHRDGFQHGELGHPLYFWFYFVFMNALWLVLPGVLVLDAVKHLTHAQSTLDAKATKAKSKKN

| Structure (SMILES) | IC50 [nM] |
| --- | --- |
| O=S(=O)(c1ccc(OC(F)F)cc1)N1C2CCC1CC(N1CC3CCC(C3)C1)C2 (centres unmarked) [Example 58, 8′-((4-(Difluoromethoxy)phenyl)sulfonyl)-3,8′-diaza-3,3′-bi(bicyclo[3.2.1]octane)] | < 50 |
| CN(C1CCOCC1)[C@H]1C[C@H]2CC[C@@H](C1)N2S(=O)(=O)c1ccc(OC(F)F)cc1 [Example 65, (1R,3r,5S)-8-((4-(difluoromethoxy)phenyl)sulfonyl)-N-methyl-N-(tetrahydro-2H-pyran-4-yl)-8-azabicyclo[3.2.1]octan-3-amine] | < 50 |
| CN(C1CCOCC1)[C@@H]1C[C@H]2CC[C@@H](C1)N2S(=O)(=O)c1ccc(OC(F)F)cc1 [Example 66, (1R,3s,5S)-8-((4-(difluoromethoxy)phenyl)sulfonyl)-N-methyl-N-(tetrahydro-2H-pyran-4-yl)-8-azabicyclo[3.2.1]octan-3-amine] | 150 to 2000 |
| O=S(=O)(c1ccc(OC(F)F)cc1)N1[C@@H]2CC[C@H]1C[C@H](CN1CCOCC1)C2 [Example 67, 4-(((1R,3s,5S)-8-((4-(Difluoromethoxy)phenyl)sulfonyl)-8-azabicyclo[3.2.1]octan-3-yl)methyl)morpholine] | < 50 |
| O=S(=O)(c1ccc(OC(F)F)cc1)N1C2CCC1CC(N[C@@H]1CCOC1)C2 (stereo partly drawn) [Example 70, 8-((4-(Difluoromethoxy)phenyl)sulfonyl)-N—((R)-tetrahydrofuran-3-yl)-8-azabicyclo[3.2.1]octan-3-amine] | 50 to 150 |
| O=S(=O)(c1ccc(OC(F)F)cc1)N1[C@@H]2CC[C@H]1C[C@@H](NCC1COC1)C2 [Example 72, (1R,3r,5S)-8-((4-(Difluoromethoxy)phenyl)sulfonyl)-N-(oxetan-3-ylmethyl)-8-azabicyclo[3.2.1]octan-3-amine] | < 50 |
| O=S(=O)(c1ccc(OC(F)F)cc1)N1C2CCC1CC(NC1CCOCC1)C2 (centres unmarked) [Example 73, 8-((4-(Difluoromethoxy)phenyl)sulfonyl)-N-(tetrahydro-2H-pyran-4-yl)-8-azabicyclo[3.2.1]octan-3-amine] | < 50 |
| O=S(=O)(c1ccc(OC(F)F)cc1)N1C2CCC1CC(NC1COC1)C2 (centres unmarked) [Example 74, 8-((4-(Difluoromethoxy)phenyl)sulfonyl)-N-(oxetan-3-yl)-8-azabicyclo[3.2.1]octan-3-amine] | > 2000 |
| Cc1nc(C(F)(F)F)ccc1S(=O)(=O)N1[C@@H]2CC[C@H]1C[C@H](NC1CCOCC1)C2 [Example 75, (1R,3s,5S)-8-((2-Methyl-6-(trifluoromethyl)pyridin-3-yl)sulfonyl)-N-(tetrahydro-2H-pyran-4-yl)-8-azabicyclo[3.2.1]octan-3-amine] | 150 to 2000 |
| CC(C)(O)CN[C@@H]1C[C@H]2CC[C@@H](C1)N2S(=O)(=O)c1ccc(OC(F)F)cc1 [Example 76, 1-(((1R,3s,5S)-8-((4-(Difluoromethoxy)phenyl)sulfonyl)-8-azabicyclo[3.2.1]octan-3-yl)amino)-2-methylpropan-2-ol] | 150 to 2000 |
| CC(C)(O)CN[C@H]1C[C@H]2CC[C@@H](C1)N2S(=O)(=O)c1ccc(OC(F)F)cc1 [Example 77, 1-(((1R,3r,5S)-8-((4-(Difluoromethoxy)phenyl)sulfonyl)-8-azabicyclo[3.2.1]octan-3-yl)amino)-2-methylpropan-2-ol] | 50 to 150 |
